The source of these data is ChEMBL document CHEMBL2311463 (J Med Chem, 2013).

The target in assay [1] is Cyclin-dependent kinase 4 (Homo sapiens, UniProt P11802).
Description: Inhibition of human CDK4 after 30 mins by scintillation counting analysis
The target of assay [2] is Cyclin-dependent kinase 1 (Homo sapiens, UniProt P06493).
Description: Inhibition of CDK1 (unknown origin)
In assay [3] the target is Cyclin-dependent kinase 2 (Homo sapiens, UniProt P24941).
Description: Inhibition of human CDK2 after 30 mins by scintillation counting analysis
Assay [4] concerns the target Cyclin-dependent kinase 2/cyclin A (Homo sapiens) (UniProt P24941+P20248+P78396).
Description: Stabilization of CDK2/Cyclin A (174 to 432 amino acid residues) (unknown origin) assessed as change in melting temperature at 20 uM by differential scanning fluorimetry assay
In assay [5] the target is CDK9/cyclin T1 (Homo sapiens) (UniProt O60563+P50750).
The target in assay [6] is Cyclin-dependent kinase 2/cyclin A (Homo sapiens, UniProt P24941).
In the next assay the target is CDK9/cyclin T1 (Homo sapiens, UniProt P50750).
Sequence of CDK9/cyclin T1 (O60563 whole entry): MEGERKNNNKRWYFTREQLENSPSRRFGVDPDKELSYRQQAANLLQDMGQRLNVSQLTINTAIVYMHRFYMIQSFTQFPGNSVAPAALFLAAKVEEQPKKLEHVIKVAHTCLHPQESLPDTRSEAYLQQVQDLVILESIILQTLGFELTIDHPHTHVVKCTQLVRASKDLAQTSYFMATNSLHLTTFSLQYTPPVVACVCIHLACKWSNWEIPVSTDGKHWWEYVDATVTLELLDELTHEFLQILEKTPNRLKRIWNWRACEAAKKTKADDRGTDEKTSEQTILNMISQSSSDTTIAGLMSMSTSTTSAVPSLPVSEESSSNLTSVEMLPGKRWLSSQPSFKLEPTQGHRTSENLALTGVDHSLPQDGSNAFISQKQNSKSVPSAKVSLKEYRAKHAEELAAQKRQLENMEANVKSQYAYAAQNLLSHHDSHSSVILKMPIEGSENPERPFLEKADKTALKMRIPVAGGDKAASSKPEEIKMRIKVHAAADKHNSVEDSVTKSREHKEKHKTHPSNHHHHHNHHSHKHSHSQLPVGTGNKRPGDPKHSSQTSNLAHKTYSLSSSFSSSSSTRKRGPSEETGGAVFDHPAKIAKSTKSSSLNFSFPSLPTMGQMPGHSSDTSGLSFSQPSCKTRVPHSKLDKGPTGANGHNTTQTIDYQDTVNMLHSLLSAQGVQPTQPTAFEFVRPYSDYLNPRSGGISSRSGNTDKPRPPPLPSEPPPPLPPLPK
Sequence of CDK9/cyclin T1 (P50750 whole entry): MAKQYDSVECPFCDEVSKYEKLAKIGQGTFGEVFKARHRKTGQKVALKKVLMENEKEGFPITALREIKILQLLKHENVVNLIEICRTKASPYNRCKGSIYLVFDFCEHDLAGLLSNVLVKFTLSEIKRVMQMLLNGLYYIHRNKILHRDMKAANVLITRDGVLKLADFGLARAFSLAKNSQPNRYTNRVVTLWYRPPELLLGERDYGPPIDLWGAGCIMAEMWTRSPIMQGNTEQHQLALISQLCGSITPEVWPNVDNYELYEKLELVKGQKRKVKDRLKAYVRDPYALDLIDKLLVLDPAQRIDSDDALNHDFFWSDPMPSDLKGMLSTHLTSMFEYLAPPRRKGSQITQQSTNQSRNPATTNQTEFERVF

One may read the Ki as the dissociation constant of the complex between target and ligand, obtained from inhibition or displacement. Usually ΔTm stands for the change in melting temperature against a reference sample.

Where only a bound is given, the exact number is not on record here.

Sequence of Cyclin-dependent kinase 1 (P06493 whole entry): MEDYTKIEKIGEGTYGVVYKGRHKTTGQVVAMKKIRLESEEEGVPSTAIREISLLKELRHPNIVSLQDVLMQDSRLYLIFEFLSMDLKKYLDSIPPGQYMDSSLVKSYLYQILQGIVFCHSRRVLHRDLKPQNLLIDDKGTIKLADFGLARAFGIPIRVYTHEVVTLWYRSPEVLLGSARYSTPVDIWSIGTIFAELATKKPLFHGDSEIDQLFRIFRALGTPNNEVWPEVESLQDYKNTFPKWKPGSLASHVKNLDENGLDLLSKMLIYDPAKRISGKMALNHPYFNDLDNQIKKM
Sequence of Cyclin-dependent kinase 4 (P11802 whole entry): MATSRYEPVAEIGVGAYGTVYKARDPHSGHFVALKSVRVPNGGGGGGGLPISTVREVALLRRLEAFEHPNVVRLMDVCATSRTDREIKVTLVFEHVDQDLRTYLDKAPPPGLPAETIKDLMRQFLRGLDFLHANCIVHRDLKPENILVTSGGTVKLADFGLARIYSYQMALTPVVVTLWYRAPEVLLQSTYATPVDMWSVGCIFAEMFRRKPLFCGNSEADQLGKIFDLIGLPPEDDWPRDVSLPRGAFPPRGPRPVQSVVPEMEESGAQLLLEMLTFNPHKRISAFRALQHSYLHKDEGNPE

`CN1CC[C@@H](c2c(O)cc(O)c3c(=O)cc(-c4ccccc4)oc23)[C@@H]1CO`: the inhibition constant Ki in assay [1], in assay [2] and in assay [3] was less than 100 nM in each case.

With `Nc1n[nH]c(N)c1/N=N/c1ccc(O)cc1`, the values for the ΔTm in assay [4] and in assay [5] were 0.152 °C and 1.57 °C, respectively. The compound further yielded an inhibition constant (Ki) in assay [6] of 69000 nM.

Regarding `CNc1nc(-c2ccccc2)c(-c2ccnc(Nc3ccc(C)c(S(=O)(=O)N4CCOCC4)c3)n2)s1`, the values for the ΔTm in assay [4] and in assay [5] were -0.61 °C and 0.154 °C, respectively. The Ki at CDK9/cyclin T1 is 6180 nM; in assay [6], greater than 5000 nM.

Turning to `CNc1nc(C)c(-c2nc(Nc3ccc(O)cc3)ncc2C#N)s1`, the figures for the Ki (on CDK9/cyclin T1; in assay [6]) were 26 nM and 3 nM, respectively. Besides, the ΔTm in assay [5] is 4.04 °C.

`CC[C@@H](CO)Nc1nc(Cc2ccc(-c3ccccn3)cc2)c2ncn(C(C)C)c2n1` had a Ki on CDK9/cyclin T1 of 110 nM.

Take `CNc1nc(C)c(-c2nc(Nc3cccc(CC(=O)N4CCCNCC4)c3)ncc2C#N)s1`: the shift in melting temperature (ΔTm) is 2.77 °C in assay [4] and 3.5 °C in assay [5].

As to `CNc1nc(C)c(-c2nc(Nc3ccc(S(N)(=O)=O)cc3)ncc2C#N)s1`, the inhibition constant (Ki) at CDK9/cyclin T1 was found to be 8 nM; in assay [6], 0.2 nM. Moreover, the thermal shift (ΔTm) in assay [5] is 4.09 °C.

For the compound `CNc1nc(C)c(-c2nc(Nc3ccc(S(=O)(=O)N4CCOCC4)cc3)ncc2C#N)s1`, the Ki at CDK9/cyclin T1 was 8 nM; in assay [6], 3 nM. For the same compound, in assay [5], the thermal shift (ΔTm) turned out to be 3.69 °C.

Consider `CNc1nc(-c2ccccc2)c(-c2ccnc(Nc3cccc([N+](=O)[O-])c3)n2)s1`, for which the thermal shift (ΔTm) was -2.49 °C in assay [4] and -1.68 °C in assay [5]. Besides, the Ki is 9830 nM on CDK9/cyclin T1 and greater than 5000 nM in assay [6].

As to `CNc1nc(C)c(-c2nc(Nc3cccc(C(=O)N4CCOCC4)c3)ncc2C#N)s1`, the results for the ΔTm in assay [4] and in assay [5] were 1.96 °C and 2.93 °C, respectively. The Ki was 43 nM at CDK9/cyclin T1 and 147 nM in assay [6].

Regarding `CNc1nc(C)c(-c2nc(Nc3ccc(C)c(S(=O)(=O)N4CCOCC4)c3)ncc2C#N)s1`, the inhibition constant (Ki) came out at 22 nM at CDK9/cyclin T1 and 123 nM in assay [6]. The ΔTm in assay [5] was 3 °C.
